Assay results: ChEMBL document CHEMBL5465560, “Selectivity Literature for EUbOPEN Chemogenomic Library” (2024)

Legend:
[1] = target: Mitogen-activated protein kinase kinase kinase 10 (Homo sapiens) (UniProt Q02779); settings: at 10 µM
[2] = target: Ribosomal protein S6 kinase alpha-1 (Homo sapiens, UniProt Q15418); experiment: Selectivity interaction (KinomeScan (DiscoverX)) EUB0000655a RPS6KA1; settings: at 10 µM
[3] = target: Protein kinase C theta type (Homo sapiens, UniProt Q04759); experiment: Selectivity interaction (KinomeScan (DiscoverX)) EUB0001079a PRKCQ; settings: at 1 µM
[4] = target: Dual specificity mitogen-activated protein kinase kinase 1 (Homo sapiens, UniProt Q02750); experiment: Selectivity interaction (KinomeScan (DiscoverX)) EUB0001079a MAP2K1; settings: at 1 µM
[5] = target: T1, Alpha-2C adrenergic receptor (Homo sapiens) (UniProt P18825); experiment: Selectivity interaction (GPCR panel (PDSP screen)) EUB0001079a ADRA2C; settings: at 10 µM
T1 sequence (whole entry): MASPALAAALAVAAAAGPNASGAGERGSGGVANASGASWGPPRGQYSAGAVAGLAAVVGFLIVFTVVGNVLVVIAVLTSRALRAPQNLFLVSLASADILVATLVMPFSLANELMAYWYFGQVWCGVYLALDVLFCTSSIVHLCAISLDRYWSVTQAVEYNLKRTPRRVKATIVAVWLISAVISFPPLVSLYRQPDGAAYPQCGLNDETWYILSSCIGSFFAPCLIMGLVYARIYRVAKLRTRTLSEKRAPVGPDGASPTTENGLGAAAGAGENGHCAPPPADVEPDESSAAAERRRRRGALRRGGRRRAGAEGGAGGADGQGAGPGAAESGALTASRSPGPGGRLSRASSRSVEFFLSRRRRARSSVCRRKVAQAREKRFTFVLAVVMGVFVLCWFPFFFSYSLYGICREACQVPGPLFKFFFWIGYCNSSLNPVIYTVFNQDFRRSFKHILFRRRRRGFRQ

[6] = target: Serine/threonine-protein kinase PAK 4 (Homo sapiens, UniProt O96013); experiment: Selectivity interaction (KinomeScan (DiscoverX)) EUB0000666a PAK4; settings: at 10 µM
[7] = target: T2, Serine/threonine-protein kinase LATS2 (Homo sapiens) (UniProt Q9NRM7); settings: at 10 µM
T2 sequence (whole entry): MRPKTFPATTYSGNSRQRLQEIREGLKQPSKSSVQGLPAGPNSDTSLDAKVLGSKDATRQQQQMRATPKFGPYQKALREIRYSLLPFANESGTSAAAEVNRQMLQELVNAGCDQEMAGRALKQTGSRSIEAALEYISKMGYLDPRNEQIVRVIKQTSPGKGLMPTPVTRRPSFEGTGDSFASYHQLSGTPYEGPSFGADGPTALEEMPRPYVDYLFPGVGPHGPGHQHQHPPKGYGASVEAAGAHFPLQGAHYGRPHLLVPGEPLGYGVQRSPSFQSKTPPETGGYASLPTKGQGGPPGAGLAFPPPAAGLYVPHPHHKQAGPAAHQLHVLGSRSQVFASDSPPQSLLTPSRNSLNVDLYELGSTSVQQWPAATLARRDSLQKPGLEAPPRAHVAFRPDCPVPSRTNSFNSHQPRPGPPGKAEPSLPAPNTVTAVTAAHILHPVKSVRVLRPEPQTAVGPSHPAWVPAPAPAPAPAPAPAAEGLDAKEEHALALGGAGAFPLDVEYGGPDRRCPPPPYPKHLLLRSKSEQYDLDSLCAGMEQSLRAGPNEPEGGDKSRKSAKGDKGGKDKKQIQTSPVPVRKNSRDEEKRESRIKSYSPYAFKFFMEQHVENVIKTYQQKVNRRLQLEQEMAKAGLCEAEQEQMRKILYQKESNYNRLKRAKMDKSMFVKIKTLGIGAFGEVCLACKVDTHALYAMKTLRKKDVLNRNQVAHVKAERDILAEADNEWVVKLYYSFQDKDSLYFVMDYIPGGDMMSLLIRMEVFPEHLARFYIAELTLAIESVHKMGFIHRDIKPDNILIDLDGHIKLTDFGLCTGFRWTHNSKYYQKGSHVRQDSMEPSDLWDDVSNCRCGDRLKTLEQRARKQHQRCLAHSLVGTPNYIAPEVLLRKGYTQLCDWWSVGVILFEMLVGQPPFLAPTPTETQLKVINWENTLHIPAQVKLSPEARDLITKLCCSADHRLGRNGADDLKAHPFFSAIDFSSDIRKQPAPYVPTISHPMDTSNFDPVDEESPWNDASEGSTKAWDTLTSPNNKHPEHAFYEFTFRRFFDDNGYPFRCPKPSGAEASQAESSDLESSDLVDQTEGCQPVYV

[8] = target: Homeodomain-interacting protein kinase 2 (Homo sapiens, UniProt Q9H2X6); settings: at 10 µM
[9] = target: Ribosomal protein S6 kinase alpha-4 (Homo sapiens) (UniProt O75676); experiment: Selectivity interaction (Kinase panel (Invitrogen)) EUB0000639a RPS6KA4; settings: at 200 nM
[10] = target: Serine/threonine-protein kinase PAK 1 (Homo sapiens) (UniProt Q13153); experiment: Selectivity interaction (Kinase panel (Eurofins)) EUB0001564a PAK1; settings: at 1 µM
[11] = target: T3, Myotonin-protein kinase (Homo sapiens) (UniProt Q09013); experiment: Selectivity interaction (KinomeScan (DiscoverX)) EUB0001619a DMPK; settings: at 1 µM
T3 sequence (whole entry): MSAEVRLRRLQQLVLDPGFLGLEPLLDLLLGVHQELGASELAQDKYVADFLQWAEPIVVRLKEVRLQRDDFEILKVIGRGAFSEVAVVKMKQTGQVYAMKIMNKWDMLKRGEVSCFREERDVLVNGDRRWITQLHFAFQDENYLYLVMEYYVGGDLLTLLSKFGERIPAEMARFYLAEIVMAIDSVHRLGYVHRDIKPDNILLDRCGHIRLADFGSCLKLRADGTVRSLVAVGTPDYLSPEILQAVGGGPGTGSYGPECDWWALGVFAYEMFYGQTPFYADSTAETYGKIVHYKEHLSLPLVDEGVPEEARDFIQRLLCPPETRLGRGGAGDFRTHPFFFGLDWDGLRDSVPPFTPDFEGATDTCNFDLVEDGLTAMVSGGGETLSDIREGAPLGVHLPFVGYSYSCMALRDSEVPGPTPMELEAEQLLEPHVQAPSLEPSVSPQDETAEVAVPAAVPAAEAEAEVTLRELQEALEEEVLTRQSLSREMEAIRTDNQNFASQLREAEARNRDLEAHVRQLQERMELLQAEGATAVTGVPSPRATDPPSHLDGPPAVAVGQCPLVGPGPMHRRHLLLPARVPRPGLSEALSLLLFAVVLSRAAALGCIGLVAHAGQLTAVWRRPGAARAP

Ribosomal protein S6 kinase alpha-4 (Homo sapiens), sequence (O75676 whole entry, looked up): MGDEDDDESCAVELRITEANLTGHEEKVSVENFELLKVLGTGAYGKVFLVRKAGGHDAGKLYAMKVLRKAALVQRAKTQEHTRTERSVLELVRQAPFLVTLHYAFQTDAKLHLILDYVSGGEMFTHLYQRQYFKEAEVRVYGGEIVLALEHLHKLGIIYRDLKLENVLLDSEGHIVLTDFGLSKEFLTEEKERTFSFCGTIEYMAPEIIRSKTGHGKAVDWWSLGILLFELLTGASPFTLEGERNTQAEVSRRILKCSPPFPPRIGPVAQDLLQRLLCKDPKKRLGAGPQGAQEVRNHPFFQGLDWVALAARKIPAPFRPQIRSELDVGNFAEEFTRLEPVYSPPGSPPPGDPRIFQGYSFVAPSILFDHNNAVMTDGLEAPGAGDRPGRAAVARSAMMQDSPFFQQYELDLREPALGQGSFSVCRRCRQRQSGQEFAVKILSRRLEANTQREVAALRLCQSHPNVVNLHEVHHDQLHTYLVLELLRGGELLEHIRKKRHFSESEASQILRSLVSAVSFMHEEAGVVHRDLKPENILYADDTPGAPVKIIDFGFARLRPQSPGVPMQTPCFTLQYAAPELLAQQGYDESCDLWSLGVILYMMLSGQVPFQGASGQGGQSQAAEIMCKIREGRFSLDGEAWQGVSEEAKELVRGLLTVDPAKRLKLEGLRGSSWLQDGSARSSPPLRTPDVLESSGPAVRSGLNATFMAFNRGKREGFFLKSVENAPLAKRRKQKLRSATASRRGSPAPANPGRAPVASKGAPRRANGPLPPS
Protein kinase C theta type, sequence (Q04759 whole entry, looked up): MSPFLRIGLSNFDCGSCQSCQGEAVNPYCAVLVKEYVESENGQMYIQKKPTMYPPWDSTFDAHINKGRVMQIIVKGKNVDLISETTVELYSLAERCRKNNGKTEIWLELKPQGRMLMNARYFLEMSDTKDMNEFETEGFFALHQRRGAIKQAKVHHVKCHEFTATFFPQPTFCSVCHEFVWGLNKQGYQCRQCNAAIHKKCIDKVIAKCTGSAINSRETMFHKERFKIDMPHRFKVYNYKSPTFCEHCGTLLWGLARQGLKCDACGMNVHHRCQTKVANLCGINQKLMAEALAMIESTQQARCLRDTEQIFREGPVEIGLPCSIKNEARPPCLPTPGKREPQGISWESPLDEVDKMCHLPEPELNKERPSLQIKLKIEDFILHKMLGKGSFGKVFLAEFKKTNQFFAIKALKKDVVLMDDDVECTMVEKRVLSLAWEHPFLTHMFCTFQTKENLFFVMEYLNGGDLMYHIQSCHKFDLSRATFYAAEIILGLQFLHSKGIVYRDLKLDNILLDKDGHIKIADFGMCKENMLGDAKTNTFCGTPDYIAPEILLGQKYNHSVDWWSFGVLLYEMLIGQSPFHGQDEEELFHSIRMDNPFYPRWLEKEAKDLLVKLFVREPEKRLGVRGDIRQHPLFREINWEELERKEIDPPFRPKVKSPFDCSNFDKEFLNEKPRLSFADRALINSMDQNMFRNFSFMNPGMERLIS
Dual specificity mitogen-activated protein kinase kinase 1, sequence (Q02750 whole entry): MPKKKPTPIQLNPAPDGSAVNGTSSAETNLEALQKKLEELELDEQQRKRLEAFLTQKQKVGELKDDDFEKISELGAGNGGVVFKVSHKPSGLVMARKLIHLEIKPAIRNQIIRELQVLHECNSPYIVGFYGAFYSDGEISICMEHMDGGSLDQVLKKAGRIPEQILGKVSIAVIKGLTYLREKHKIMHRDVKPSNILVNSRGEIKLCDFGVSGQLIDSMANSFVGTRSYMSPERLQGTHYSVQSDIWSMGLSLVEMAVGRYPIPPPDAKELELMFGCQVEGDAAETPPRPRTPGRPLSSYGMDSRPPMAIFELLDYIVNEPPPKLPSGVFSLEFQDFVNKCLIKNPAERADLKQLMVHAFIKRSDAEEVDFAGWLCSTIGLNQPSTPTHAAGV
Mitogen-activated protein kinase kinase kinase 10 (Homo sapiens), sequence (Q02779 whole entry, looked up): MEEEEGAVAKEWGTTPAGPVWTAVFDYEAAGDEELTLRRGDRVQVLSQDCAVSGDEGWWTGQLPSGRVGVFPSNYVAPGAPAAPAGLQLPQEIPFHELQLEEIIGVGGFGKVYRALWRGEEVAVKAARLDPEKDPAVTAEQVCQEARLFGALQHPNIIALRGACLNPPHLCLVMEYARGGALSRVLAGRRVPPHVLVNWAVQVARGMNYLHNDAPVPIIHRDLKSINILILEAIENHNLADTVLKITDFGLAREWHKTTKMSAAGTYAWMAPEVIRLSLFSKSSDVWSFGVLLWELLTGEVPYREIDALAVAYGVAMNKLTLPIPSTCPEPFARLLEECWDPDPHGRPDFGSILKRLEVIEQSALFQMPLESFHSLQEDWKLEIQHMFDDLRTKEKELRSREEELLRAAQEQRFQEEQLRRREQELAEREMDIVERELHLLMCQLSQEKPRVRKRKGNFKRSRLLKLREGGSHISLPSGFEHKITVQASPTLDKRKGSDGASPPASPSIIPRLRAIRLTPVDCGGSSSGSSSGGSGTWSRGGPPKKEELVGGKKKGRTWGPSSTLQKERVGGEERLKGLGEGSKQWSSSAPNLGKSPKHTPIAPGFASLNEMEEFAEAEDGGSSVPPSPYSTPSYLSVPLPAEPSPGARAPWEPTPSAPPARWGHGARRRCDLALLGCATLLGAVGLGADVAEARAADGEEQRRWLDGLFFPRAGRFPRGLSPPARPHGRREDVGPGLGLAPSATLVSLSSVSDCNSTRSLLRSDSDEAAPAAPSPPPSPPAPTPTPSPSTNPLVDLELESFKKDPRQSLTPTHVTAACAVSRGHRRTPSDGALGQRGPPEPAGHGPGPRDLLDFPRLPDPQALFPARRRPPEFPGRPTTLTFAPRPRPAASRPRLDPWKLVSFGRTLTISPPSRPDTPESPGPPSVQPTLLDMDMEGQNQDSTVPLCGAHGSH
Ribosomal protein S6 kinase alpha-1, sequence (Q15418 whole entry): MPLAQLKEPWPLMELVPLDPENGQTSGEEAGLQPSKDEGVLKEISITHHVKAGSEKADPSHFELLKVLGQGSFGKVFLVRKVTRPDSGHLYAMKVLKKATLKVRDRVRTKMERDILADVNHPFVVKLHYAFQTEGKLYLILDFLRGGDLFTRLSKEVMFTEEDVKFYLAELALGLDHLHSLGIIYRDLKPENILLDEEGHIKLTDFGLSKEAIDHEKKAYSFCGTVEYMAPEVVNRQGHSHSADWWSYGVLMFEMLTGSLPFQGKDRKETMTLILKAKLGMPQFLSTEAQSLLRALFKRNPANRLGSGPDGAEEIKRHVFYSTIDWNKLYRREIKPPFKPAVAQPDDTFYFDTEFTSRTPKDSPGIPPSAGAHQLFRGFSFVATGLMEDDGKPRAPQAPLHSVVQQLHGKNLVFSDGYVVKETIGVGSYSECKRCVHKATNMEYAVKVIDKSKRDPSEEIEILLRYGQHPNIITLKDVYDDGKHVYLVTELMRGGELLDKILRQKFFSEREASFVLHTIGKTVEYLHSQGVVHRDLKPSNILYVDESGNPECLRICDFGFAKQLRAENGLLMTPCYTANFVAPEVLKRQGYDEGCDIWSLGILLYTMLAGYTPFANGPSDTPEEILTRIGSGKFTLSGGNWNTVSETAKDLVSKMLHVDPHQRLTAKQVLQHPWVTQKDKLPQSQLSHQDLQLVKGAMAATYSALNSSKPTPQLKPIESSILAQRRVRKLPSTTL
Homeodomain-interacting protein kinase 2, sequence (Q9H2X6 whole entry, looked up): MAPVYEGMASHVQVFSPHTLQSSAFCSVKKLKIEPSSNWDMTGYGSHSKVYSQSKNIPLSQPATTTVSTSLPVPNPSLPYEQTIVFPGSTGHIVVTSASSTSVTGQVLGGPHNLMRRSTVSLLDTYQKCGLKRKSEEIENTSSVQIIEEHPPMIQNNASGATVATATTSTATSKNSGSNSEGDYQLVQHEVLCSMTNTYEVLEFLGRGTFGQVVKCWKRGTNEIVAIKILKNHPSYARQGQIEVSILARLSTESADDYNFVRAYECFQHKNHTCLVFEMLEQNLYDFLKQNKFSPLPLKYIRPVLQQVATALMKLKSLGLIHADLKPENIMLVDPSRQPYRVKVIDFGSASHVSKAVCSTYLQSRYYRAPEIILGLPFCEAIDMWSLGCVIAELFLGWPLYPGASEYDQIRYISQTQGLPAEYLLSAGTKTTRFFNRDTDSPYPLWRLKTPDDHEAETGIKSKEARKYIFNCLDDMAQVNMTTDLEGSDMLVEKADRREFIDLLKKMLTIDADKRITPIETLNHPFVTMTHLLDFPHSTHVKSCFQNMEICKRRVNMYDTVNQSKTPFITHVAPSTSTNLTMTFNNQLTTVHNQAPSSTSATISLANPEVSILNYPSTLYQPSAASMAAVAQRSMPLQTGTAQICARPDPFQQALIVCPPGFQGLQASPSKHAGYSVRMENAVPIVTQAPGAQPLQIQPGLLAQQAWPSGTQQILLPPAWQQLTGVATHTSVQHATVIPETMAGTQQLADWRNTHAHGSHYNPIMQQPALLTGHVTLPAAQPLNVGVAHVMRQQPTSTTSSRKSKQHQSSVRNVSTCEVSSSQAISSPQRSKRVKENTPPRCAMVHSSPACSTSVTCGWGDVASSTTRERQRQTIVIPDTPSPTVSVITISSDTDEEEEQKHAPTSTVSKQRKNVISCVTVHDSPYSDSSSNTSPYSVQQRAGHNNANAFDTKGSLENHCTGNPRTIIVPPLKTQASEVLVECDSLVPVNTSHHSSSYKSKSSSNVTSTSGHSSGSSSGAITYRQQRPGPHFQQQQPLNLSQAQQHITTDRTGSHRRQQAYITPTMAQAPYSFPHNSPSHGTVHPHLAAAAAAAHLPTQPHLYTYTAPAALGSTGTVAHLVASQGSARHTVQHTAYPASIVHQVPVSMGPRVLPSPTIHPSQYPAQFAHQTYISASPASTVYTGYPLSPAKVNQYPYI

With `CCN(CC)CCCCNc1ncc2cc(-c3cc(OC)cc(OC)c3)c(NC(=O)NC(C)(C)C)nc2n1` the % of control [1] was 100%.

Work on `CN(C)CCOc1ccc(-c2nc(-c3ccncc3)c(-c3ccc4c(c3)CC/C4=N\O)[nH]2)cc1` yielded a % of control [2] of 91%.

`Nc1cnc(N2CCc3cc(S(=O)(=O)Nc4c(F)cc(Cl)cc4F)cc(N4CCCC4=O)c32)nc1` [TP-020n] gave a % of control [3] of 89%, a % of control [4] of 100% and a % of inhibition [5] of -14.3%.

For `O=C(NOC[C@H](O)CO)c1ccc(F)c(F)c1Nc1ccc(I)cc1F`, the % of control [6] was 100%.

With `Cc1cc([C@@H](C)Nc2ccccc2C(=O)O)c2nc(N3CCOCC3)cc(=O)n2c1` [AZD-6482] the % of control [7] was 63% and the % of control [8] was 79%.

Molecule `CC[C@@H]1[C@H](F)C(=O)N[C@@H]1COc1nccc2cc(C(N)=O)c(OC)cc12` [ZIMLOVISERTIB] has a % of inhibition [9] of 4.43%.

For `CC[C@@H](Nc1c(C#N)c(-c2ccc(-c3cccc(C)c3F)cc2)nc2cnccc12)C(=O)O` [BAY-091], the % of inhibition [10] was 23.8%.

In the case of `N#Cc1cccc(-c2c[nH]c3ncnc(N4CCOCC4)c23)c1`, the % of control [11] was 87%.
